Columns and labels:
IL-13 = IL-13 level in OVA asthma model; assay type: in vivo, BALB/c mice; details: for IL-13 level: lung tissue (table title)
Experimental: (§1) All experimental procedures were carried out in accordance with the NIH Guidelines for the Care and Use of Laboratory Animals. Specific pathogen-free (SPF) male BALB/c mice (6-7 weeks of age, 18-22 grams), routinely screened serologically for relevant respiratory pathogens, were maintained in an animal housing facility for 1 week before use and given access to food and water ad libitum. Animals were randomly assigned to the indicated experimental groups, and sensitized with two intraperitoneal (IP) injections (20 μg ovalbumin (OVA) emulsified in 2 mg aluminum hydroxide (an adjuvant) in 200 μl phosphate buffer saline (PBS), pH 7.4), on days 1 and 10.
(§2) After another week, the animals were challenged by exposure to ovalbumin (OVA) aerosol (1%, w/v, in PBS) for 30 minutes each day on days 17, 18 and 19, in order to elicit an inflammatory reaction in the lungs characterized by airway hyper-responsiveness (AHR), an influx of inflammatory cells (particularly eosinophils), and increased pulmonary levels of various cytokines and transforming growth factors, protein nitration and lipid peroxidation.
(§3) Bronchoalveolar lavage (BAL) fluid (also referred to herein as “BALf”) and bronchial submucosal inflammation are characteristic features of asthma. Mice were euthanized with an overdose of 50 mg/kg pentobarbital and ice-cold phosphate buffer saline (PBS) (0.6 ml) was instilled into the lungs. BAL fluid was obtained by three aspirations via tracheal cannulation, centrifuged, and the supernatant collected and stored at −70° C. Cell pellets were re-suspended in PBS and 100 μl aliquots placed onto slides and centrifuged (200 g, 4° C., 10 minutes) in a cytospin machine. Induction of oxidative stress was evaluated using a 2′,7′-dichlorofluorescein fluorescence assay, and total IgE, IgG2a, panel of cytokines, transforming growth factors, collagen, protein nitration and lipid peroxidation were measured using commercial kits according to the manufacturer's recommendations. A Sircol™ collagen assay kit was obtained from Biocolor Life Sciences Assays, a protein nitration assay kit was obtained from Abcam, and other assay kits were obtained from PeproTech Asia.
(§4) The efficacy of oral administration of 3-CP (1 weight percent in chow) during the sensitization period and/or challenge period was then compared to IP injection (˜300 mg/kg, 0.5 hour before the OVA challenge) or intranasal instillation (˜150 mg/kg, 0.5 hour before the OVA and 6 hours later) of 3-CP, as well as to dexamethasone treatment (1 mg/kg, 3 daily IP injections, 0.5 hour prior to the challenge with OVA aerosol).
(§5) In order to assess the effect of 3-CP on inflammatory signaling pathways, […] to procedures described hereinabove, upon oral, intranasal or IP administration of 3-CP.

[1] = previously established; cited from earlier work
mucin production = assay: Mucin production by PAS staining of lung tissue, OVA asthma model; assay type: in vivo, mice
Experimental: (§6) Following aspiration of BAL as described hereinabove, a thoracotomy was performed, and the right main bronchus was tied. The left lung was fixed by means of intrabronchial infusion with 1 ml of 4% formaldehyde, and then immersed in fixative (10% (v/v) neutral buffered formalin) for 24 hours at 4° C. Transverse sections of the left lung were embedded in paraffin, and […] sections were stained with hematoxylin and eosin (H&E) by Hadassah Hospital Pathology Service (Jerusalem, Israel). In addition, periodic acid-Schiff (PAS) staining was performed on lung tissue, and the degree of mucin production was measured from PAS staining.
(§7) In order to evaluate the effect of 3-CP on lung pathology, animals in an ovalbumin-induced asthma model were treated with 3-CP, and killed by abdominal aortic transaction and exsanguination, according to procedures described hereinabove. Lung tissue was examined by hematoxylin and eosin (H&E) staining, the degree of mucin production was determined from periodic-acid-Schiff (PAS) staining.

TGF-β1 [2] = assay: TGF-β1 level in bleomycin pulmonary fibrosis model; assay type: in vivo, mice; details: 3-CP 150 mg/kg daily intranasal, 14 days, FIG. 19
Experimental: (§8) Bronchoalveolar lavage (BAL) fluid (also referred to herein as “BALf”) and bronchial submucosal inflammation are characteristic features of asthma. Mice were euthanized with an overdose of 50 mg/kg pentobarbital and ice-cold phosphate buffer saline (PBS) (0.6 ml) was instilled into the lungs. BAL fluid was obtained by three aspirations via tracheal cannulation, centrifuged, and the supernatant collected and stored at −70° C. Cell pellets were re-suspended in PBS and 100 μl aliquots placed onto slides and centrifuged (200 g, 4° C., 10 minutes) in a cytospin machine. Induction of oxidative stress was evaluated using a 2′,7′-dichlorofluorescein fluorescence assay, and total IgE, IgG2a, panel of cytokines, transforming growth factors, collagen, protein nitration and lipid peroxidation were measured using commercial kits according to the manufacturer's recommendations. A Sircol™ collagen assay kit was obtained from Biocolor Life Sciences Assays, a protein nitration assay kit was obtained from Abcam, and other assay kits were obtained from PeproTech Asia. […]
The effect of 3-CP on bleomycin-induced inflammation was evaluated by determining lung resistance, total inflammatory cell count, and TGF-β1 levels, according to procedures described hereinabove.

[3] = system: ovalbumin-induced asthma model; assay: Lung histopathology, H&E pathology scoring, OVA asthma model; assay type: in vivo, mice; details: FIG. 9
Experimental: as §6, §7

IFN-γ = IFN-γ level in OVA asthma model; assay type: in vivo, BALB/c mice; details: for IFN-γ level: lung tissue (table title)
Experimental: as §1, §2, §3, §4, §5

[4] = system: bleomycin-induced pulmonary fibrosis; assay: Collagen content in lung tissue, bleomycin pulmonary fibrosis model; assay type: in vivo, mice; details: 3-CP 150 mg/kg daily intranasal, 14 days, FIG. 20
Experimental: as §8
The degree of fibrosis was evaluated by measuring collagen content in lung tissue.

TGF-β1 [5] = assay: TGF-β1 level in OVA asthma model; assay type: in vivo, BALB/c mice
Experimental: as §1, §2, §3, §4, §5

[6] = OVA IP-C: 3-CP intraperitoneal during challenge
[7] = OVA oral-C: 3-CP oral during challenge
[8] = OVA oral-S&C: 3-CP oral during sensitization and challenge
[9] = OVA oral-S: 3-CP oral during sensitization
[10] = oral administration vs IP injection

For `CC1(C)CC(C(N)=O)C(C)(C)N1[O]` (stereo not shown) [3-CP, 3-Carbamoyl-2,2,5,5-tetramethyl-pyrrolidin-1-oxyl], the “reducing IL-13 level, oral 3-CP compared with intranasal 3-CP and IP dexamethasone” value (IL-13; FIG. 7D and Table 1) was “more effective than intranasal instillation of 3-CP and IP injection of dexamethasone”, the IL-13 level (IL-13; OVA IN-C: 3-CP intranasal during challenge) was 1.99 ng/mg and the IL-13 level (IL-13; [6]) was 1.38 ng/mg. The IL-13 level (IL-13; [7]) was 2.01 ng/mg, the IL-13 level (IL-13; [8]) was 1.67 ng/mg and the IL-13 level (IL-13; [9]) was 2.20 ng/mg. The “effect on OVA-induced increase in the level of IL-13” value (IL-13; lung tissue, FIG. 7D and Table 1) was “inhibited”, the “modulating IL-13 level, oral compared with IP 3-CP” value (IL-13; [10]) was “consistently more effective than IP injection of 3-CP” and the maximally tolerated dose [1] was 300 to 500 mg/kg. The “effect on mucin levels, PAS scoring” value (mucin production; 3-CP via all tested modes of delivery, FIGS. 10 and 11) was “reduced the mucin levels”, the “reducing mucin levels, 3-CP compared with dexamethasone” value (mucin production; FIG. 10) was “at least as effective as dexamethasone” and the “effect on bleomycin-induced increase in TGF-β1 expression in lungs” value (TGF-β1 [2]) was “significantly reduced”. For the same compound, the “effect on degree of lung pathology, H & E pathology scoring” value ([3]; 3-CP via all tested modes of delivery) was “reduced the degree of lung pathology”, the “H & E lung pathology, 3-CP compared with dexamethasone” value [3] was “more effective in this respect than treatment with dexamethasone” and the IFN-γ level (IFN-γ; [6]) was 5.17 ± 0.19 ng/mg. It also gave an IFN-γ level (IFN-γ; [7]) of 5.32 ± 0.38 ng/mg, an IFN-γ level (IFN-γ; [8]) of 5.60 ± 0.22 ng/mg and an IFN-γ level (IFN-γ; [9]) of 3.78 ± 0.27 ng/mg. For the same compound, the “effect on OVA-induced decrease in the level of INF-γ” value (IFN-γ; lung tissue, FIG. 7C and Table 1) was “inhibited”, the “modulating IFN-γ level, oral compared with IP 3-CP” value (IFN-γ; [10]) was “consistently more effective than IP injection of 3-CP” and the “effect on bleomycin-induced pulmonary fibrosis, pulmonary collagen content” value [4] was “significantly inhibited”. The “effect on OVA-induced increase in the level of TGF-β1” value (TGF-β1 [5]; FIG. 7E and Table 1) was “inhibited”, the “reducing TGF-β1 level, oral 3-CP compared with intranasal 3-CP and IP dexamethasone” value (TGF-β1 [5]; FIG. 7E and Table 1) was “more effective than intranasal instillation of 3-CP and IP injection of dexamethasone” and the TGF-β1 level (TGF-β1 [5]; [6]) was 0.88 ± 0.05 ng/mg. The TGF-β1 level (TGF-β1 [5]; [7]) was 0.72 ± 0.08 ng/mg, the TGF-β1 level (TGF-β1 [5]; [8]) was 0.73 ± 0.07 ng/mg and the TGF-β1 level (TGF-β1 [5]; [9]) was 0.76 ± 0.02 ng/mg. The “modulating TGF-β1 level, oral compared with IP 3-CP” value (TGF-β1 [5]; [10]) was “consistently more effective than IP injection of 3-CP”.

From patent publication US10441568B2, “Nitroxide radicals for the treatment of diseases of the respiratory tract” (priority 2015, dated 2019)
